Results: patent US20250115569A1, “SULFONAMIDE COMPOUNDS FOR THE TREATMENT OF NEUROLOGICAL CONDITIONS” (LARIO THERAPEUTICS LIMITED, priority 2021, published 2025)

Columns and labels:
Type in all cases: cell-based
Cav2.3 [1] = target: T1, Cav2.3 (Homo sapiens, UniProt Q15878); assay: Whole-cell patch clamp assay (QPatch) in HEK-293 T-Rex/Kir2.1/Cav2.3e-β4-α2δ1 cells; conditions: QPatch 16X, room temperature, mean ± S.E, read-out: Cav2.3 (pIC50) (converted)
Protocol: HEK-293 T-Rex/Kir2.1/Cav2.3e-β4-α2δ1 cells were seeded 96 hours before experiment and doxycycline at 0.2 μg/mL was added 24 hours before experiment. Just before the experiments cells were washed twice with D-PBS w/o Ca^2+/Mg^2+ and gently detached from the flask with Detachin. Cells were then re-suspended in the suspension solution (25 mL EX-CELL ACF CHO medium; 0.25 mL of 100× Penicillin/Streptomycin) and placed on the Automated Patch-clamp platform (QPatch 16X).
Standard whole-cell voltage clamp experiments were performed at room temperature using the single hole technology and the following intracellular and extracellular solutions (ICS and ECS, respectively) were used. ICS (mM): CsF 60, CsCl 50, NaCl 10, EGTA 20, BAPTA 5, HEPES 10, NaGTP 0.3, MgATP 5 (pH 7.2; ECS (mM): NMDG-Cl 120, BaCl2 20, HEPES 10, EGTA 7 (pH 7.4). After establishment of the seal and the passage in the whole-cell configuration, the Cav2.3 dependent current was evoked by challenging the cells with the following voltage protocol: the plasma membrane was held at −80 mV then a 50 ms-long depolarizing pulse at 0 mV, followed by a 50 ms-long hyperpolarizing pulse at −100 mV were applied and finally the plasma membrane was held back to −80 mV. This voltage protocol was applied every 10 seconds. Cav2.3 dependent current was first measured in control condition (vehicle, 0.1% DMSO), in the presence of increasing concentration of the compound under investigation and finally SNX 482 was added to fully block any R-type Cav2.3 dependent current.
For data collection, the Sophion proprietary software was used while the analysis was performed off-line using Excel and GraphPad Prism. The inward current (Area Under Curve) measured during each depolarizing pulse was normalized to cell membrane capacitance (Cm) to obtain the average inward current density in each condition (control, compound under investigation and SNX 482). Then, the inhibitory effect of the compound under investigation was evaluated as % of the remaining inward current, normalized to the internal control. […] All data were expressed as mean±S.E

Cav2.3 [2] = target: T1, Cav2.3; assay: Human Cav2.3 channel calcium-influx assay; conditions: Fluo8 fluorescence, HEK-293 T-Rex/Kir2.1/Cav2.3e cells, without pluronic acid, read-out: Cav2.3 (pIC50) (converted)
Method in brief: (§1)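 HEK-293 T-Rex/Kir2.1 cells with doxycycline (0.2 μg/mL)-inducible Cav2.3e plus Cavβ4-α2δ1, loaded with Fluo8 NW in 0 mM K+ Tyrode's. Compounds (8 points, top 30 μM, half-log, 0.3% final DMSO, n=4) preincubated 3 min at RT, then depolarized with 20 mM KCl/2 mM CaCl2 (final); fluorescence read 130 s.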

Human Cav2.3 channel = Human Cav2.3 channel calcium-influx assay; conditions: Fluo8 fluorescence, HEK-293 T-Rex/Kir2.1/Cav2.3e cells, without pluronic acid
Method in brief: as §1

T1 sequence (Q15878 whole entry, looked up): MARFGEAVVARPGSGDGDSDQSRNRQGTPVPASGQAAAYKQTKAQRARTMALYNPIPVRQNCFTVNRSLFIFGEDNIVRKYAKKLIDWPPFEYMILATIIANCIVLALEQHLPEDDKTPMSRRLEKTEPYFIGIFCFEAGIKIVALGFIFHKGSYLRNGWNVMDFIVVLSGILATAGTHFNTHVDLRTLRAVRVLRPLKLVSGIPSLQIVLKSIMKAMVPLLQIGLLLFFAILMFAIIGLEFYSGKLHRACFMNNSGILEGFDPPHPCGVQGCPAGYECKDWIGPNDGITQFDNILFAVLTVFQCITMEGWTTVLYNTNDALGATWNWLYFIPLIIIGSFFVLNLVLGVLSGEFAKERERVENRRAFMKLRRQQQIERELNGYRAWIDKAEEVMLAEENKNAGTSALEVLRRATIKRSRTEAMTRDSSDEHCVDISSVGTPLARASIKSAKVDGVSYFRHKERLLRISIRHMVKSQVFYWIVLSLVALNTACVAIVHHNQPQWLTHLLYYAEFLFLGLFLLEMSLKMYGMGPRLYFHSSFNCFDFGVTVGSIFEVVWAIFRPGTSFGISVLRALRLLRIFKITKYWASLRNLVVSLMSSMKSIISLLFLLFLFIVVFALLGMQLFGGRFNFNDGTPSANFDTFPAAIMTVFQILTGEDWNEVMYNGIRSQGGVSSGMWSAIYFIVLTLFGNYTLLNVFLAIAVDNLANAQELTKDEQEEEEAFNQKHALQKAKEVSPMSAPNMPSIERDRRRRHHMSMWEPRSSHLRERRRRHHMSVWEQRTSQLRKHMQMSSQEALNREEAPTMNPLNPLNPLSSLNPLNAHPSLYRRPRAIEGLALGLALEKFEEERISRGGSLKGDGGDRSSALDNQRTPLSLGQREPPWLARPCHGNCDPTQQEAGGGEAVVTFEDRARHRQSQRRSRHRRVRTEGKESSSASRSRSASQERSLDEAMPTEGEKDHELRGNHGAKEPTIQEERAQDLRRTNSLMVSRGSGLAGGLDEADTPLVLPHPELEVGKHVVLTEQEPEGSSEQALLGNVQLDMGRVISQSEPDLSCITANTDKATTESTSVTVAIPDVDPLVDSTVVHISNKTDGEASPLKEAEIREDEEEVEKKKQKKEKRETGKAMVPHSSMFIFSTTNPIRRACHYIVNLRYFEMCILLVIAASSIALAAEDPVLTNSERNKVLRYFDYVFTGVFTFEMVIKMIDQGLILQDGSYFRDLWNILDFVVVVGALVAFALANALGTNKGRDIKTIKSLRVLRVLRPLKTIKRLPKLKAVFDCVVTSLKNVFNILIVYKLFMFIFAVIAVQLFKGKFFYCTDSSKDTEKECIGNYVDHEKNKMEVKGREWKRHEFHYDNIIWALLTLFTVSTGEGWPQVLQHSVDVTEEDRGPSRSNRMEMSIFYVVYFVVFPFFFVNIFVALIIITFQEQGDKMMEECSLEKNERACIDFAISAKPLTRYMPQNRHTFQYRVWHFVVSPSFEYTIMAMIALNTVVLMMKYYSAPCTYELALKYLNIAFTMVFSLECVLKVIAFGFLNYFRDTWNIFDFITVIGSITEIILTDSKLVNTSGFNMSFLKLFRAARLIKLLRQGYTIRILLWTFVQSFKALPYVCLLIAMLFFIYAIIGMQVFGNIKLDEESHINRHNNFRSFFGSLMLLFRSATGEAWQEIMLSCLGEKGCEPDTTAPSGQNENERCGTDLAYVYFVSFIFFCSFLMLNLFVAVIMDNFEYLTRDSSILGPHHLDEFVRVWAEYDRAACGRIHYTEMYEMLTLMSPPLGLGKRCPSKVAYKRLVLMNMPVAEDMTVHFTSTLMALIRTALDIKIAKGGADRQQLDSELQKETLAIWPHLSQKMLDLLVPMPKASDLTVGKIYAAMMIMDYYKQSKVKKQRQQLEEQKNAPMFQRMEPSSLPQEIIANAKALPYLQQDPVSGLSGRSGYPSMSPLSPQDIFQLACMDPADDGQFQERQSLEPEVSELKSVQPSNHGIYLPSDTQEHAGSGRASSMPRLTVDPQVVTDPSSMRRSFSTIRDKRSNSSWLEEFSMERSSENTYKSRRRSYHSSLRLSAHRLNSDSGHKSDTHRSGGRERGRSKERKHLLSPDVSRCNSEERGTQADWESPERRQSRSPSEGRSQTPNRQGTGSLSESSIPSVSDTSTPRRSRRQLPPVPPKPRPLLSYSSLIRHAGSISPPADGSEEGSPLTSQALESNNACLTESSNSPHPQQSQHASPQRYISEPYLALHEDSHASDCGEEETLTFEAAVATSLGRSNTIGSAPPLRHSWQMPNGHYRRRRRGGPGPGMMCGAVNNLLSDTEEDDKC

CN([C@H](c1ccc(Cl)cc1)C(F)(F)F)S(=O)(=O)c1cncc(C#N)c1 [Example 171, (R)—N-(1-(4-chlorophenyl)-2,2,2-trifluoroethyl)-5-cyano-N-methylpyridine-3-sulfonamide]
IC50 (Cav2.3 [1]): 132 nM | IC50 (Cav2.3 [2]): 25.7 nM

CN(C(c1ccc(F)cc1)C(F)(F)F)S(=O)(=O)c1ccc(C#N)s1 (stereo not shown) [Example 2, 5-cyano-N-methyl-N-(2,2,2-trifluoro-1-(4-fluorophenyl)ethyl)thiophene-2-sulfonamide]
IC50 (Cav2.3 [1]): 1480 nM | Cav2.3 (pIC50) (Human Cav2.3 channel): 6.14

CCN([C@@H](c1ccc(F)cc1)C(F)(F)F)S(=O)(=O)c1ccc(C)s1 [Example 9, (S)—N-ethyl-5-methyl-N-(2,2,2-trifluoro-1-(4-fluorophenyl)ethyl)thiophene-2-sulfonamide]
IC50 (Cav2.3 [1]): 1910 nM | Cav2.3 (pIC50) (Human Cav2.3 channel): 5.16

CN([C@H](c1ccc(C(F)(F)F)cc1)C(F)(F)F)S(=O)(=O)c1cncc(C#N)c1 [Example 68, (R)-5-Cyano-N-methyl-N-(2,2,2-trifluoro-1-(4-(trifluoromethyl)phenyl)ethyl)pyridine-3-sulfonamide]
IC50 (Cav2.3 [1]): 72.4 nM | IC50 (Cav2.3 [2]): 35.5 nM

CCN([C@H](c1ccc(F)cc1)C(F)(F)F)S(=O)(=O)c1cncc(F)c1 (stereo in doubt) [Example 219, N-ethyl-5-fluoro-N-(2,2,2-trifluoro-1-(4-fluorophenyl)ethyl)pyridine-3-sulfonamide]
IC50 (Cav2.3 [1]): 42.7 nM

Cc1ccc(S(=O)(=O)N(C)[C@H](c2ccc(F)cc2)C(F)(F)F)s1 [Example 13, (R)—N,5-dimethyl-N-(2,2,2-trifluoro-1-(4-fluorophenyl)ethyl)thiophene-2-sulfonamide]
IC50 (Cav2.3 [1]): 2570 nM | Cav2.3 (pIC50) (Human Cav2.3 channel): 5.41

CCN([C@H](c1ccc(F)cc1)C(F)(F)F)S(=O)(=O)c1cncc(N2CCOCC2)c1 [Example 96, (R)—N-ethyl-5-morpholino-N-(2,2,2-trifluoro-1-(4-fluorophenyl)ethyl)pyridine-3-sulfonamide]
IC50 (Cav2.3 [1]): 67.6 nM | Cav2.3 (pIC50) (Human Cav2.3 channel): 6.95

CCN([C@@H](c1ccc(F)cc1)C(F)(F)F)S(=O)(=O)c1ccc(C#N)s1 [Example 4, (S)-5-cyano-N-ethyl-N-(2,2,2-trifluoro-1-(4-fluorophenyl)ethyl)thiophene-2-sulfonamide]
IC50 (Cav2.3 [1]): 447 nM | Cav2.3 (pIC50) (Human Cav2.3 channel): 5.30

CCN([C@H](c1ccc(F)cc1)C(F)(F)F)S(=O)(=O)c1ccn2ccnc2c1 [Example 136, (R)—N-ethyl-N-(2,2,2-trifluoro-1-(4-fluorophenyl)ethyl)imidazo[1,2-a]pyridine-7-sulfonamide]
IC50 (Cav2.3 [1]): 64.6 nM | Cav2.3 (pIC50) (Human Cav2.3 channel): 7.50

CCN([C@H](c1ccc(F)cc1)C(F)(F)F)S(=O)(=O)c1ccc(C#N)s1 [Example 5, (R)-5-cyano-N-ethyl-N-(2,2,2-trifluoro-1-(4-fluorophenyl)ethyl)thiophene-2-sulfonamide]
IC50 (Cav2.3 [1]): 1350 nM | Cav2.3 (pIC50) (Human Cav2.3 channel): 6.56

CCN([C@H](c1ccc(F)cc1)C(F)(F)F)S(=O)(=O)C1CCOCC1 [Example 63, (R)—N-ethyl-N-(2,2,2-trifluoro-1-(4-fluorophenyl)ethyl)tetrahydro-2H-pyran-4-sulfonamide]
IC50 (Cav2.3 [1]): 302 nM | Cav2.3 (pIC50) (Human Cav2.3 channel): 6.92

CCN(C(c1ccc(F)cc1)C(F)(F)F)S(=O)(=O)c1cncnc1 [Example 133, (R)—N-ethyl-N-(2,2,2-trifluoro-1-(4-fluorophenyl)ethyl)pyrimidine-5-sulfonamide]
IC50 (Cav2.3 [1]): 148 nM | Cav2.3 (pIC50) (Human Cav2.3 channel): 7.20

CCN([C@H](c1ccc(F)cc1)C(F)(F)F)S(=O)(=O)c1cnc2[nH]ccc2n1 [Example 140, (R)—N-ethyl-N-(2,2,2-trifluoro-1-(4-fluorophenyl)ethyl)-5H-pyrrolo[2,3-b]pyrazine-2-sulfonamide]
IC50 (Cav2.3 [2]): 562 nM

CCN([C@H](c1ccc(F)cc1)C(F)(F)F)S(=O)(=O)c1cnc2[nH]nnc2c1 [Example 166, (R)—N-ethyl-N-(2,2,2-trifluoro-1-(4-fluorophenyl)ethyl)-1H-[1,2,3]triazolo[4,5-b]pyridine-6-sulfonamide]
IC50 (Cav2.3 [2]): 794 nM

CCN([C@H](c1ccc(F)cc1)C(F)(F)F)S(=O)(=O)c1cnc(C)nc1 [Example 77, (R)—N-ethyl-2-methyl-N-(2,2,2-trifluoro-1-(4-fluorophenyl)ethyl)pyrimidine-5-sulfonamide]
IC50 (Cav2.3 [1]): 562 nM | Cav2.3 (pIC50) (Human Cav2.3 channel): 7.01

CN([C@H](c1ccc(Cl)cc1)C(F)(F)F)S(=O)(=O)c1ccn2nncc2c1 [Example 202, (R)—N-(1-(4-chlorophenyl)-2,2,2-trifluoroethyl)-N-methyl-[1,2,3]triazolo[1,5-a]pyridine-5-sulfonamide]
IC50 (Cav2.3 [2]): 288 nM

CCN(C(c1ccc(F)cc1)C(F)(F)F)S(=O)(=O)c1ccc(C2CNC2)s1 (stereo not shown) [Example 47, 5-(Azetidin-3-yl)-N-ethyl-N-(2,2,2-trifluoro-1-(4-fluorophenyl)ethyl)thiophene-2-sulfonamide]
IC50 (Cav2.3 [2]): 501 nM

CCN([C@@H](c1ccc(OC)cc1)C(F)(F)F)S(=O)(=O)C1CCOCC1 [Example 126, (S)—N-ethyl-N-(2,2,2-trifluoro-1-(4-methoxyphenyl)ethyl)tetrahydro-2H-pyran-4-sulfonamide]
IC50 (Cav2.3 [2]): 30200 nM

CCN([C@@H](c1ccc(F)cc1)C(F)(F)F)S(=O)(=O)c1cnnc(OC)c1 [Example 122, (S)—N-ethyl-6-methoxy-N-(2,2,2-trifluoro-1-(4-fluorophenyl)ethyl)pyridazine-4-sulfonamide]
IC50 (Cav2.3 [2]): 7240 nM

Cc1ccc([C@@H](N(C)S(=O)(=O)c2cncc(F)c2)C(F)(F)F)cc1 [Example 222, (R)-5-fluoro-N-methyl-N-(2,2,2-trifluoro-1-(p-tolyl)ethyl)pyridine-3-sulfonamide]
IC50 (Cav2.3 [2]): 245 nM

CN([C@H](c1ccc(OC(F)(F)F)cc1)C(F)(F)F)S(=O)(=O)c1cncc(C#N)c1 [Example 241, (R)-5-cyano-N-methyl-N-(2,2,2-trifluoro-1-(4-(trifluoromethoxy)phenyl)ethyl)pyridine-3-sulfonamide]
IC50 (Cav2.3 [2]): 105 nM

CCN(C(c1ccc(F)cc1)C(F)(F)F)S(=O)(=O)c1cc(N2CCOCC2)cs1 (stereo not shown) [Example 92, N-ethyl-4-morpholino-N-(2,2,2-trifluoro-1-(4-fluorophenyl)ethyl)thiophene-2-sulfonamide]
IC50 (Cav2.3 [2]): 1320 nM

CN([C@H](c1ccc(F)cc1)C(F)(F)F)S(=O)(=O)c1cnc2ccnn2c1 [Example 183, (R)—N-methyl-N-(2,2,2-trifluoro-1-(4-fluorophenyl)ethyl)pyrazolo[1,5-a]pyrimidine-6-sulfonamide]
IC50 (Cav2.3 [2]): 240 nM

N#Cc1cncc(S(=O)(=O)N(CCF)[C@@H](c2ccc(F)cc2)C(F)(F)F)c1 [Example 65, (S)-5-Cyano-N-(2-fluoroethyl)-N-(2,2,2-trifluoro-1-(4-fluorophenyl)ethyl)pyridine-3-sulfonamide]
IC50 (Cav2.3 [2]): 3800 nM

CCN(C(c1ccc(F)cc1)C(F)(F)F)S(=O)(=O)c1cncc(C(N)=O)c1 (stereo in doubt) [Example 52, (S)-5-(N-ethyl-N-(2,2,2-trifluoro-1-(4-fluorophenyl)ethyl)sulfamoyl)nicotinamide]
IC50 (Cav2.3 [2]): 95.5 nM

CCN([C@H](c1ccc(F)cc1)C(F)(F)F)S(=O)(=O)c1cnc2cccnn12 [Example 176, (R)—N-ethyl-N-(2,2,2-trifluoro-1-(4-fluorophenyl)ethyl)imidazo[1,2-b]pyridazine-3-sulfonamide]
IC50 (Cav2.3 [2]): 91.2 nM

CN([C@H](c1ccc(F)cc1)C(F)(F)F)S(=O)(=O)c1cncc(C#N)c1 [Example 274, (R)-5-Cyano-N-methyl-N-(2,2,2-trifluoro-1-(4-fluorophenyl)ethyl)pyridine-3-sulfonamide]
IC50 (Cav2.3 [2]): 100 nM

CCN([C@H](c1ccc(F)cc1)C(F)(F)F)S(=O)(=O)c1cnc(C#N)s1 [Example 84]
IC50 (Cav2.3 [2]): 871 nM

CCN([C@@H](c1ccc(F)cc1)C(F)(F)F)S(=O)(=O)c1cccc(C)n1 [Example 32, (S)—N-ethyl-6-methyl-N-(2,2,2-trifluoro-1-(4-fluorophenyl)ethyl)pyridine-2-sulfonamide]
IC50 (Cav2.3 [2]): 3800 nM

CN([C@H](c1ccc(C(F)(F)F)cc1)C(F)(F)F)S(=O)(=O)c1cncnc1 [Example 172, (R)—N-methyl-N-(2,2,2-trifluoro-1-(4-(trifluoromethyl)phenyl)ethyl)pyrimidine-5-sulfonamide]
IC50 (Cav2.3 [1]): 295 nM | Cav2.3 (pIC50) (Human Cav2.3 channel): 7.23
